Reference: US8815857B2 (Boehringer Ingelheim International GmbH, priority 2011, dated 2014)
Values after ≈ are worked out from the molar mass of the structure shown.

How the values were obtained:
[1] = Assessment of solubility: HT solubility in pION buffer, UV spectrophotometry; conditions: kinetic from dmso stock
[2] = molecular target: T1, human soluble guanylate cyclase alpha 1 and beta 1 subunits (sGC) stably expressed in Chinese hamster ovary cells (Homo sapiens, UniProt Q02108+Q02153); experiment: sGC cellular activator assay: cGMP in CHO cells expressing human sGC, preincubated with ODQ; format: cell-based; conditions: 40 microM ODQ preincubation, 30 min at room temperature, presence or absence of 50% human serum not given, read-out: EC50 nM, Activity of Compounds in Cellular Assay
T1 construct: expressed in transfected cells; host or cells: Chinese hamster ovary cells, stably transfected
T1 sequence (Q02108 1-690 partner): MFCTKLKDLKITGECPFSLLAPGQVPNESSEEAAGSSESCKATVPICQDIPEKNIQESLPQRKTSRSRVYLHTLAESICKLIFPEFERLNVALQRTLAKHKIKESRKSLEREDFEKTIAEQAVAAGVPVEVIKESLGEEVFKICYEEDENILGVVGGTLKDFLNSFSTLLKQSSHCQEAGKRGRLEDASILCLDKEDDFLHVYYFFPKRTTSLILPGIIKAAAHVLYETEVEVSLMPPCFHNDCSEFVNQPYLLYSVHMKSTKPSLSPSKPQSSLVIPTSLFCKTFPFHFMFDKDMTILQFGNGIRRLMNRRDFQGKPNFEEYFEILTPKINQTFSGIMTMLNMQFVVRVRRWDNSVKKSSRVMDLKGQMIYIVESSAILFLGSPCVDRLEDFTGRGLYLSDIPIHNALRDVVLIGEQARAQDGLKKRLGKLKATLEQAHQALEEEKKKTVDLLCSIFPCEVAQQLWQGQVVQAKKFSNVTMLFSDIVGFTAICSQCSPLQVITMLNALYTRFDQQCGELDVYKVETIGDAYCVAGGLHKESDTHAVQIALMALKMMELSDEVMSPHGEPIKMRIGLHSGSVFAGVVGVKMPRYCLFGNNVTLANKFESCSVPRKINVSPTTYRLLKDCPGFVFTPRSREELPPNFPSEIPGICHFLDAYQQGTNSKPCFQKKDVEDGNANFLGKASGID
T1 sequence (Q02153 1-619): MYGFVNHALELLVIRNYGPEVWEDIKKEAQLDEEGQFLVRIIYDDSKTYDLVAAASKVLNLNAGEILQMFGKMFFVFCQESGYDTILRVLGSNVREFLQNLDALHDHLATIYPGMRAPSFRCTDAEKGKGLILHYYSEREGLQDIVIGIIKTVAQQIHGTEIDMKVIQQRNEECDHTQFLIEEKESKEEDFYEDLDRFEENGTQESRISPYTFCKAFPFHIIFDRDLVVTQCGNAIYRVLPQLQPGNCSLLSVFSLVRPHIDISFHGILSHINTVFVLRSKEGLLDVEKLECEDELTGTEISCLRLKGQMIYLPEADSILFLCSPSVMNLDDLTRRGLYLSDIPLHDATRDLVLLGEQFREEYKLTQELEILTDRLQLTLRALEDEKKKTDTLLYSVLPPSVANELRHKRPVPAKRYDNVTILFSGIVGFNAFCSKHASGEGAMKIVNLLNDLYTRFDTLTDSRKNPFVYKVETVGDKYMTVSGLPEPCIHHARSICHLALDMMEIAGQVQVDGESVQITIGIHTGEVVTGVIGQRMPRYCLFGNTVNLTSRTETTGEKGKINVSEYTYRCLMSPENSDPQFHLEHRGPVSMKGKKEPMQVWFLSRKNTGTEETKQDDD
Method: The sGC cellular activator assay is performed in the presence and absence of 50% human serum (HS) using Chinese hamster ovary cells that have been stably transfected to express the human soluble guanylate cyclase alpha 1 and beta 1 subunits (sGC). Cells are preincubated with 40 microM 1H-[1,2,4]oxadiazolo[4,3-a]quinoxalin-1-one (ODQ), an sGC inhibitor, for one hour in buffer containing 0.1% bovine serum albumin and 3-isobutyl-1-methylxanthine (IBMX). Concentration response curves are prepared for test compounds in DMSO. An intermediate dilution of the compounds is performed in either buffer containing IBMX or type AB HS containing IBMX. Diluted compounds are added to cells and they are incubated at room temperature for thirty minutes. cGMP is measured using a CisBio homogeneous time resolved fluorescence kit and the EC50 is calculated for each compound.

[3] = pH 6.8, aqueous buffer, Solubility (pH 6.8), pH 6.8
[4] = pION system solution buffer, pH 4.5, pH 4.5, aqueous buffer, Solubility (pH 4.5), pH 4.5 buffer, 16-19 h incubation, 1.0% DMSO
[5] = pION system solution buffer, pH 7.4, pH 7.4, aqueous buffer, Solubility (pH 7.4), pH 7.4 buffer, 16-19 h incubation, 1.0% DMSO

Row | Structure (SMILES) | solubility [1, 3] | solubility [1, 4] | EC50 [2] | solubility [1, 5]
1 | Cc1ccc(OCc2ccc(C(=O)N3CCNC(=O)C3)cc2C)c(-c2csc(N3C[C@H]4CC[C@@H](C3)[C@H]4C(=O)O)n2)c1 [Compound 314] | 68 µg/mL (≈ 118 µM) | 2.4 µg/mL (≈ 4.18 µM) | 63 nM | 
2 | Cc1ccc(OCc2ccc(CN3CCS(=O)(=O)CC3)cc2C)c(-c2csc(N3CC4(CC4C(=O)O)C3)n2)c1 (stereo not drawn) [Compound 252] | 0.2 µg/mL (≈ 0.352 µM) | < 0.1 µg/mL | 260 nM | 
3 | Cc1ccc(OCc2ccc(C(=O)N3CCCOCC3)cc2C)c(-c2csc(N3C[C@H]4CC[C@@H](C3)[C@H]4C(=O)O)n2)c1 [Compound 316] | 64 µg/mL (≈ 111 µM) | < 0.1 µg/mL | 15 nM | 
4 | Cc1ccc(OCc2ccc(CN3CCN(C(C)C)C(=O)C3)cc2C)c(-c2csc(N3CC4CCC(C3)C4C(=O)O)n2)c1 (stereo not drawn) [Compound 293] | 3.4 µg/mL (≈ 5.64 µM) | < 0.1 µg/mL | 29 nM | 
5 | Cc1ccc(OCc2ccc(C(=O)N3CC[C@@H](CO)C3)cc2C)c(-c2csc(N3C[C@H]4CC[C@@H](C3)[C@H]4C(=O)O)n2)c1 [Compound 326] | 65 µg/mL (≈ 113 µM) | 0.21 µg/mL (≈ 0.365 µM) | 61 nM | 
6 | Cc1ccc(OCc2ccc(C(=O)N3CCC(CO)CC3)cc2C)c(-c2csc(N3C[C@H]4CC[C@@H](C3)[C@H]4C(=O)O)n2)c1 [Compound 309] | 63 µg/mL (≈ 107 µM) | < 0.1 µg/mL | 42 nM | 
7 | Cc1ccc(OCc2ccc(C(=O)N3CCCCCC3)cc2C)c(-c2csc(N3C[C@H]4CC[C@@H](C3)[C@H]4C(=O)O)n2)c1 [Compound 302] | 4.6 µg/mL (≈ 8.02 µM) | < 0.1 µg/mL | 35 nM | 
8 | Cc1ccc(OCc2ccc(C(=O)N3CC[C@@H](N(C)C)C3)cc2C)c(-c2csc(N3C[C@H]4CC[C@@H](C3)[C@H]4C(=O)O)n2)c1 [Compound 310] | 61 µg/mL (≈ 104 µM) | 59 µg/mL (≈ 100 µM) | 99 nM | 
9 | Cc1ccc(OCc2ccc(CN3CCN(C(=O)C4CC4)CC3)cc2C)c(-c2csc(N3CC(C4(C(=O)O)CC4)C3)n2)c1 [Compound 255] | 0.94 µg/mL (≈ 1.56 µM) | 6 µg/mL (≈ 9.99 µM) | 480 nM | 
10 | Cc1ccc(OCc2ccc(CN3CCOCC3)cc2C)c(-c2csc(N3CC[C@]4(C(=O)O)C[C@@H]4C3)n2)c1 [Compound 220] | 4.8 µg/mL (≈ 8.99 µM) | 42 µg/mL (≈ 78.7 µM) | 42 nM | 4 µg/mL (≈ 7.49 µM)
11 | Cc1ccc(OCc2ccc(C(=O)N3CCCCC3)cc2C)c(-c2csc(N3CCCC(C)(C(=O)O)CC3)n2)c1 (stereo not drawn) [Compound 229] | 21 µg/mL (≈ 37.4 µM) | 0.4 µg/mL (≈ 0.712 µM) | 76 nM | 
12 | Cc1ccc(OCc2ccc(C(=O)N3CCCCC3)cc2C)c(-c2csc(N3C[C@@H]4[C@H](C3)[C@@H]4C(=O)O)n2)c1 [Compound 243] | 61 µg/mL (≈ 115 µM) | 1.2 µg/mL (≈ 2.26 µM) | 180 nM | 
13 | Cc1ccc(OCc2ccc(C(=O)N3CCOCC3)cc2C)c(-c2csc(N3C[C@H]4CC[C@@H](C3)[C@H]4C(=O)O)n2)c1 [Compound 268] | 70 µg/mL (≈ 125 µM) | < 0.1 µg/mL | 7.3 nM | 38 µg/mL (≈ 67.7 µM)
14 | Cc1ccc(OCc2ccc(C(=O)N3CCC(C#N)CC3)cc2C)c(-c2csc(N3C[C@H]4CC[C@@H](C3)[C@H]4C(=O)O)n2)c1 [Compound 323] | 39 µg/mL (≈ 66.7 µM) | < 0.1 µg/mL | 51 nM | 
15 | Cc1ccc(OCc2ccc(CN3CCN(C)C(=O)C3)cc2C#N)c(-c2csc(N3C[C@H]4CC[C@@H](C3)[C@H]4C(=O)O)n2)c1 [Compound 354] | 57 µg/mL (≈ 97.3 µM) | 0.42 µg/mL (≈ 0.717 µM) | 3.8 nM | 
16 | Cc1ccc(OCc2ccc(CN3CCOCC3)cc2C)c(-c2csc(N3CC(CC(=O)O)C3)n2)c1 [Compound 254] | 51 µg/mL (≈ 100 µM) | 40 µg/mL (≈ 78.8 µM) | 450 nM | 
17 | Cc1ccc(OCc2ccc(C(=O)N3C[C@H]4CC[C@@H](C3)O4)cc2C)c(-c2csc(N3C[C@H]4CC[C@@H](C3)[C@H]4C(=O)O)n2)c1 [Compound 340] | 0.26 µg/mL (≈ 0.442 µM) | < 0.1 µg/mL | 19 nM | 
18 | Cc1ccc(OCc2ccc(CN3CCOCC3)cc2C)c(-c2csc(N3C[C@@H]4[C@H](C3)[C@@H]4C(=O)O)n2)c1 [Compound 246] | 54 µg/mL (≈ 104 µM) | 62 µg/mL (≈ 119 µM) | 340 nM | 
19 | Cc1ccc(OCc2ccc(C(=O)N3CCC(F)(F)C3)cc2C)c(-c2csc(N3C[C@H]4CC[C@@H](C3)[C@H]4C(=O)O)n2)c1 [Compound 320] | 36 µg/mL (≈ 61.9 µM) | < 0.1 µg/mL | 15 nM | 
20 | Cc1ccc(OCc2ccc(CN3CCOCC3)cc2OC(F)(F)F)c(-c2csc(N3C[C@H]4CC[C@@H](C3)[C@H]4C(=O)O)n2)c1 [Compound 280] | 0.9 µg/mL (≈ 1.46 µM) | 0.72 µg/mL (≈ 1.17 µM) | 16 nM | 
21 | Cc1ccc(OCc2ccc(C(=O)N3CCCCC3)c(C)c2)c(-c2csc(N3C[C@H]4CC[C@@H](C3)[C@H]4C(=O)O)n2)c1 [Compound 283] | 0.1 µg/mL (≈ 0.179 µM) | < 0.1 µg/mL | 60 nM | 
22 | CCc1cc(C(=O)N2CCOCC2)ccc1COc1ccc(C)cc1-c1csc(N2C[C@H]3CC[C@@H](C2)[C@H]3C(=O)O)n1 [Compound 288] | 29 µg/mL (≈ 50.4 µM) | < 0.1 µg/mL | 9.7 nM | 
23 | Cc1ccc(OCc2ccc(C(=O)N(C)CC3CCCO3)cc2C)c(-c2csc(N3C[C@H]4CC[C@@H](C3)[C@H]4C(=O)O)n2)c1 (stereo partly drawn) [Compound 306] | 50 µg/mL (≈ 84.8 µM) | 0.13 µg/mL (≈ 0.22 µM) | 21 nM | 5.2 µg/mL (≈ 8.82 µM)
24 | COC1CCN(C(=O)c2ccc(COc3ccc(C)cc3-c3csc(N4C[C@H]5CC[C@@H](C4)[C@H]5C(=O)O)n3)c(C)c2)CC1 [Compound 321] | 41 µg/mL (≈ 69.5 µM) | 0.13 µg/mL (≈ 0.22 µM) | 55 nM | 
25 | Cc1ccc(OCc2ccc(CN3CCN(C)C(=O)C3)cc2C)c(-c2csc(N3C[C@H]4CC[C@@H](C3)[C@@]4(C)C(=O)O)n2)c1 [Compound 269] | 16 µg/mL (≈ 27.2 µM) | 0.28 µg/mL (≈ 0.476 µM) | 9.5 nM | 
26 | Cc1ccc(OCc2ccc(CN3CCOCC3)cc2C)c(-c2csc(N3CCCC(C)(C(=O)O)CC3)n2)c1 (stereo not drawn) [Compound 233] | 0.6 µg/mL (≈ 1.09 µM) | 47 µg/mL (≈ 85.5 µM) | 310 nM | 
